Reference: ChEMBL document CHEMBL5055675, “Apoptosis Inducing 1,3,4-Oxadiazole Conjugates of Capsaicin: Their In Vitro Antiproliferative and In Silico Studies” (ACS Med Chem Lett, 2021)

Tests used:
Assay type in all cases: functional
HL-60(TB) = assay: Antiproliferative activity against human HL-60 (TB) cells assessed as cell growth at 10 uM incubated for 48 hrs by sulforhodamine B assay relative to control; conditions: read-out: Activity
MOLT-4 = assay: Antiproliferative activity against human MOLT-4 cells assessed as cell growth at 10 uM incubated for 48 hrs by sulforhodamine B assay relative to control; conditions: read-out: Activity
RPMI-8226 = assay: Antiproliferative activity against human RPMI-8226 cells assessed as cell growth at 10 uM incubated for 48 hrs by sulforhodamine B assay relative to control; conditions: read-out: Activity
SR = assay: Antiproliferative activity against human SR cells assessed as cell growth at 10 uM incubated for 48 hrs by sulforhodamine B assay relative to control; conditions: read-out: Activity
NCI-H226 = assay: Antiproliferative activity against human NCI-H226 cells assessed as cell growth at 10 uM incubated for 48 hrs by sulforhodamine B assay relative to control; conditions: read-out: Activity
NCI-H23 = assay: Antiproliferative activity against human NCI-H23 cells assessed as cell growth at 10 uM incubated for 48 hrs by sulforhodamine B assay relative to control; conditions: read-out: Activity
NCI-H460 = assay: Antiproliferative activity against human NCI-H460 cells assessed as cell growth at 10 uM incubated for 48 hrs by sulforhodamine B assay relative to control; conditions: read-out: Activity
HCT-116 [1] = assay: Antiproliferative activity against human HCT-116 cells assessed as cell growth at 10 uM incubated for 48 hrs by sulforhodamine B assay relative to control; conditions: read-out: Activity
HCT-15 = assay: Antiproliferative activity against human HCT-15 cells assessed as cell growth at 10 uM incubated for 48 hrs by sulforhodamine B assay relative to control; conditions: read-out: Activity
KM12 = assay: Antiproliferative activity against human KM12 cells assessed as cell growth at 10 uM incubated for 48 hrs by sulforhodamine B assay relative to control; conditions: read-out: Activity
SW-620 = assay: Antiproliferative activity against human SW-620 cells assessed as cell growth at 10 uM incubated for 48 hrs by sulforhodamine B assay relative to control; conditions: read-out: Activity
SF-539 = assay: Antiproliferative activity against human SF-539 cells assessed as cell growth at 10 uM incubated for 48 hrs by sulforhodamine B assay relative to control; conditions: read-out: Activity
SNB-19 = assay: Antiproliferative activity against human SNB-19 cells assessed as cell growth at 10 uM incubated for 48 hrs by sulforhodamine B assay relative to control; conditions: read-out: Activity
SNB-75 = assay: Antiproliferative activity against human SNB-75 cells assessed as cell growth at 10 uM incubated for 48 hrs by sulforhodamine B assay relative to control; conditions: read-out: Activity
U-251 = assay: Antiproliferative activity against human U-251 cells assessed as cell growth at 10 uM incubated for 48 hrs by sulforhodamine B assay relative to control; conditions: read-out: Activity
LOX IMVI = assay: Antiproliferative activity against human LOX IMVI cells assessed as cell growth at 10 uM incubated for 48 hrs by sulforhodamine B assay relative to control; conditions: read-out: Activity
M14 = assay: Antiproliferative activity against human M14 cells assessed as cell growth at 10 uM incubated for 48 hrs by sulforhodamine B assay relative to control; conditions: read-out: Activity
MDA-MB-435 = assay: Antiproliferative activity against human MDA-MB-435 cells assessed as cell growth at 10 uM incubated for 48 hrs by sulforhodamine B assay relative to control; conditions: read-out: Activity
SK-MEL-28 = assay: Antiproliferative activity against human SK-MEL-28 cells assessed as cell growth at 10 uM incubated for 48 hrs by sulforhodamine B assay relative to control; conditions: read-out: Activity
SK-MEL-5 = assay: Antiproliferative activity against human SK-MEL-5 cells assessed as cell growth at 10 uM incubated for 48 hrs by sulforhodamine B assay relative to control; conditions: read-out: Activity
UACC-257 = assay: Antiproliferative activity against human UACC-257 cells assessed as cell growth at 10 uM incubated for 48 hrs by sulforhodamine B assay relative to control; conditions: read-out: Activity
UACC-62 = assay: Antiproliferative activity against human UACC-62 cells assessed as cell growth at 10 uM incubated for 48 hrs by sulforhodamine B assay relative to control; conditions: read-out: Activity
IGROV-1 = assay: Antiproliferative activity against human IGROV-1 cells assessed as cell growth at 10 uM incubated for 48 hrs by sulforhodamine B assay relative to control; conditions: read-out: Activity
OVCAR-3 = assay: Antiproliferative activity against human OVCAR-3 cells assessed as cell growth at 10 uM incubated for 48 hrs by sulforhodamine B assay relative to control; conditions: read-out: Activity
OVCAR-4 = assay: Antiproliferative activity against human OVCAR-4 cells assessed as cell growth at 10 uM incubated for 48 hrs by sulforhodamine B assay relative to control; conditions: read-out: Activity
OVCAR-5 = assay: Antiproliferative activity against human OVCAR-5 cells assessed as cell growth at 10 uM incubated for 48 hrs by sulforhodamine B assay relative to control; conditions: read-out: Activity
SK-OV-3 [2] = assay: Antiproliferative activity against human SK-OV-3 cells assessed as cell growth at 10 uM incubated for 48 hrs by sulforhodamine B assay relative to control; conditions: read-out: Activity
A498 = assay: Antiproliferative activity against human A498 cells assessed as cell growth at 10 uM incubated for 48 hrs by sulforhodamine B assay relative to control; conditions: read-out: Activity
ACHN = assay: Antiproliferative activity against human ACHN cells assessed as cell growth at 10 uM incubated for 48 hrs by sulforhodamine B assay relative to control; conditions: read-out: Activity
SN12C = assay: Antiproliferative activity against human SN12C cells assessed as cell growth at 10 uM incubated for 48 hrs by sulforhodamine B assay relative to control; conditions: read-out: Activity
DU-145 = assay: Antiproliferative activity against human DU-145 cells assessed as cell growth at 10 uM incubated for 48 hrs by sulforhodamine B assay relative to control; conditions: read-out: Activity
MCF7 = assay: Antiproliferative activity against human MCF7 cells assessed as cell growth at 10 uM incubated for 48 hrs by sulforhodamine B assay relative to control; conditions: read-out: Activity
MDA-MB-231 = assay: Antiproliferative activity against human MDA-MB-231/ATCC cells assessed as cell growth at 10 uM incubated for 48 hrs by sulforhodamine B assay relative to control; conditions: read-out: Activity
Hs-578T = assay: Antiproliferative activity against human Hs-578T cells assessed as cell growth at 10 uM incubated for 48 hrs by sulforhodamine B assay relative to control; conditions: read-out: Activity
BT-549 = assay: Antiproliferative activity against human BT-549 cells assessed as cell growth at 10 uM incubated for 48 hrs by sulforhodamine B assay relative to control; conditions: read-out: Activity
T47D = assay: Antiproliferative activity against human T47D cells assessed as cell growth at 10 uM incubated for 48 hrs by sulforhodamine B assay relative to control; conditions: read-out: Activity
MDA-MB-468 = assay: Antiproliferative activity against human MDA-MB-468 cells assessed as cell growth at 10 uM incubated for 48 hrs by sulforhodamine B assay relative to control; conditions: read-out: Activity
HCT-116 [3] = assay: Antiproliferative activity against human HCT-116 cells assessed as cell growth inhibition measured after 72 hrs by crystal violet staining based assay; conditions: HCT-116, 72 h
SK-OV-3 [4] = assay: Antiproliferative activity against human SK-OV-3 cells assessed as cell growth inhibition measured after 72 hrs by crystal violet staining based assay; conditions: SK-OV-3, 72 h

| SMILES | growth at 10 µM (HL-60(TB)) | growth at 10 µM (MOLT-4) | growth at 10 µM (RPMI-8226) | growth at 10 µM (SR) | growth at 10 µM (NCI-H226) | growth at 10 µM (NCI-H23) | growth at 10 µM (NCI-H460) | growth at 10 µM (HCT-116 [1]) | growth at 10 µM (HCT-15) | growth at 10 µM (KM12) | growth at 10 µM (SW-620) | growth at 10 µM (SF-539) | growth at 10 µM (SNB-19) | growth at 10 µM (SNB-75) | growth at 10 µM (U-251) | growth at 10 µM (LOX IMVI) | growth at 10 µM (M14) | growth at 10 µM (MDA-MB-435) | growth at 10 µM (SK-MEL-28) | growth at 10 µM (SK-MEL-5) | also measured |
| --- | --- | --- | --- | --- | --- | --- | --- | --- | --- | --- | --- | --- | --- | --- | --- | --- | --- | --- | --- | --- | --- |
| COc1cc(CNC(=O)CCCC/C=C/C(C)C)ccc1OCc1nnc(Nc2ccc([N+](=O)[O-])cc2)o1 | 101% | 84.2% | 52.3% | 64.2% | 62.1% | 62.1% | 33.5% | 24.6% | 81.2% | 71.7% | 67.3% | 70.2% | 54% | 48.7% | 48.6% | 55.2% | 69.6% | 66.4% | 78.9% | 46.3% | growth at 10 µM (UACC-257): 77.6%; growth at 10 µM (UACC-62): 39.6%; growth at 10 µM (IGROV-1): 53.5%; growth at 10 µM (OVCAR-3): 77.3%; growth at 10 µM (OVCAR-4): 11.2%; growth at 10 µM (OVCAR-5): 101%; growth at 10 µM (SK-OV-3 [2]): 11.8%; growth at 10 µM (A498): 56.8%; growth at 10 µM (ACHN): 41.2%; growth at 10 µM (SN12C): 49%; growth at 10 µM (DU-145): 62%; growth at 10 µM (MCF7): 55.2%; growth at 10 µM (MDA-MB-231): 67.1%; growth at 10 µM (Hs-578T): 63.2%; growth at 10 µM (BT-549): 108%; growth at 10 µM (T47D): 48.6%; growth at 10 µM (MDA-MB-468): 53.8%; IC50 (HCT-116 [3]): 8.55 µM; IC50 (SK-OV-3 [4]): 6.4 µM |
| COc1cc(CNC(=O)CCCC/C=C/C(C)C)ccc1OCc1nnc(Nc2cccc(Br)c2)o1 | 79.8% | 83.5% | 70.3% | 67.7% | 50.4% | 66% | 97.5% | 67.6% | 90.2% | 90.3% | 95.4% | 88.4% | 99.5% | 83.5% | 102% | 88.9% | 93.3% | 101% | 107% | 89.8% | growth at 10 µM (UACC-257): 105%; growth at 10 µM (UACC-62): 67.5%; growth at 10 µM (IGROV-1): 92.9%; growth at 10 µM (OVCAR-3): 88%; growth at 10 µM (OVCAR-4): 85.1%; growth at 10 µM (OVCAR-5): 91.1%; growth at 10 µM (SK-OV-3 [2]): 82.6%; growth at 10 µM (A498): 77.8%; growth at 10 µM (ACHN): 85.1%; growth at 10 µM (SN12C): 95.7%; growth at 10 µM (DU-145): 89.8%; growth at 10 µM (MCF7): 83.7%; growth at 10 µM (MDA-MB-231): 78.3%; growth at 10 µM (Hs-578T): 93.7%; growth at 10 µM (BT-549): 76.4%; growth at 10 µM (T47D): 58.9%; growth at 10 µM (MDA-MB-468): 48.1% |
